Measurements reported in ChEMBL document CHEMBL4507315 (2021).

Tests used:
[1] = molecular target: Mitogen-activated protein kinase kinase kinase 7 (Homo sapiens) (UniProt O43318); settings: Compound concentration 100.0 nM
[2] = molecular target: 5-hydroxytryptamine receptor 6 (Homo sapiens) (UniProt P50406); settings: Compound concentration 10.0 uM
[3] = molecular target: Cyclin-G-associated kinase (Homo sapiens) (UniProt O14976); settings: Compound concentration 100.0 nM
[4] = molecular target: Serine/threonine-protein kinase 38 (Homo sapiens) (UniProt Q15208); settings: Compound concentration 100.0 nM
[5] = molecular target: Ribosomal protein S6 kinase alpha-2 (Homo sapiens) (UniProt Q15349); settings: Compound concentration 100.0 nM
[6] = tested on: Receptor-type tyrosine-protein kinase FLT3 (Homo sapiens), P36888 [R834Q]; settings: Compound concentration 100.0 nM
[7] = molecular target: Calcium/calmodulin-dependent protein kinase type 1D (Homo sapiens) (UniProt Q8IU85); settings: Compound concentration 100.0 nM
Chain of Calcium/calmodulin-dependent protein kinase type 1D (Homo sapiens) (Q8IU85 whole entry, looked up): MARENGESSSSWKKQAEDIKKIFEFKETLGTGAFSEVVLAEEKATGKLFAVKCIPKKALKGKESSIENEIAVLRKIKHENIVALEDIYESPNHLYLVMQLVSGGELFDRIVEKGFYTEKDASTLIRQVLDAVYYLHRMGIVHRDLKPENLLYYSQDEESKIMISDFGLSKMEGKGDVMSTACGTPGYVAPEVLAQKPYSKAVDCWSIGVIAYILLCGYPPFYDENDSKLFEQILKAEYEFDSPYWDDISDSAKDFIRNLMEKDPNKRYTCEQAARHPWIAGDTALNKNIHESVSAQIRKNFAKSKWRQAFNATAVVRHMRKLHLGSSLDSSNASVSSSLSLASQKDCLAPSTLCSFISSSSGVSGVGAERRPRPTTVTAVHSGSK

[8] = molecular target: Ribosomal protein S6 kinase alpha-6 (Homo sapiens) (UniProt Q9UK32); settings: Compound concentration 100.0 nM
Chain of Ribosomal protein S6 kinase alpha-6 (Homo sapiens) (Q9UK32 whole entry): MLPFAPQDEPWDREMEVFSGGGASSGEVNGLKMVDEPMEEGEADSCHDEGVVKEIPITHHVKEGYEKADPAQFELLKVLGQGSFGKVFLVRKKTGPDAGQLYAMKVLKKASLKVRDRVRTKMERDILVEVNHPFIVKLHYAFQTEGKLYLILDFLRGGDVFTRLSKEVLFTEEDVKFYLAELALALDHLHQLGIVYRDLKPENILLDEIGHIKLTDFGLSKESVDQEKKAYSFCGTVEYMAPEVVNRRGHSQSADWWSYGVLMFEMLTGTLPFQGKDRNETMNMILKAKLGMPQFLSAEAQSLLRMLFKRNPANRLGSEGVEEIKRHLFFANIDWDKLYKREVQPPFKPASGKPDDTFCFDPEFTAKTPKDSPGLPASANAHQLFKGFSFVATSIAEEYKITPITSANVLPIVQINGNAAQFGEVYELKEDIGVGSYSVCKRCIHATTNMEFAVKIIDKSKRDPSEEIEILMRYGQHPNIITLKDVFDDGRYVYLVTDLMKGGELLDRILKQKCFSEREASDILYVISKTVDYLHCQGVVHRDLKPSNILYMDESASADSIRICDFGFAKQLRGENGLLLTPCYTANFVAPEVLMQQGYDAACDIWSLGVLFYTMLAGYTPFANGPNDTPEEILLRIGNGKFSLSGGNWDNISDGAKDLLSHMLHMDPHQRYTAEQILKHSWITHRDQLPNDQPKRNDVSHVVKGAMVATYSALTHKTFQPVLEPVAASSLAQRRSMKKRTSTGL

[9] = molecular target: D(1A) dopamine receptor (Homo sapiens) (UniProt P21728); settings: Compound concentration 10.0 uM
[10] = molecular target: Dual specificity protein kinase CLK2 (Homo sapiens) (UniProt P49760); settings: Compound concentration 100.0 nM
[11] = molecular target: Serine/threonine-protein kinase PAK 5 (Homo sapiens) (UniProt Q9P286); settings: Compound concentration 100.0 nM
[12] = molecular target: Mitogen-activated protein kinase kinase kinase kinase 5 (Homo sapiens) (UniProt Q9Y4K4); settings: Compound concentration 100.0 nM
Chain of Mitogen-activated protein kinase kinase kinase kinase 5 (Homo sapiens) (Q9Y4K4 whole entry, looked up): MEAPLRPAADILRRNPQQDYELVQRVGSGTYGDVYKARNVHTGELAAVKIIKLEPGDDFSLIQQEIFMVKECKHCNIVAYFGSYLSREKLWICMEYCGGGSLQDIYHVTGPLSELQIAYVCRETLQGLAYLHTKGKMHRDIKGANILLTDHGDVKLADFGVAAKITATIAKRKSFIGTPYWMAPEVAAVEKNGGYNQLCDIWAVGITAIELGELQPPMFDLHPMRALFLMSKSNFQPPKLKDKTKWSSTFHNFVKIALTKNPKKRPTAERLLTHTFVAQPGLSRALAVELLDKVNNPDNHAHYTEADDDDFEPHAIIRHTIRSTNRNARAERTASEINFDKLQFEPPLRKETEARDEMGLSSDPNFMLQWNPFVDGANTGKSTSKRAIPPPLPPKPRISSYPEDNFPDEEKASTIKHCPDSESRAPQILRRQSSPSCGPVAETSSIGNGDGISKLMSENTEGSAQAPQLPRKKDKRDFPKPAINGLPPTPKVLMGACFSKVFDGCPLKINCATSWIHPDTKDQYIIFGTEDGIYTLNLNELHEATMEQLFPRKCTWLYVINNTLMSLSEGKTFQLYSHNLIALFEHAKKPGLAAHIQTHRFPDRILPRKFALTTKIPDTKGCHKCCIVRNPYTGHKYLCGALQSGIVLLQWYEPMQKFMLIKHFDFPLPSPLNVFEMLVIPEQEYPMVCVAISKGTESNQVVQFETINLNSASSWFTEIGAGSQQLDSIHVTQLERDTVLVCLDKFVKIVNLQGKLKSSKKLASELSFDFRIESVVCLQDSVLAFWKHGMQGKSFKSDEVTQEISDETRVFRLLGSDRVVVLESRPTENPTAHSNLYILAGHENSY

[13] = molecular target: ALK tyrosine kinase receptor (Homo sapiens) (UniProt Q9UM73); settings: Compound concentration 100.0 nM
[14] = molecular target: Aurora kinase B (Homo sapiens) (UniProt Q96GD4); settings: Compound concentration 100.0 nM
[15] = molecular target: MAP kinase-activated protein kinase 2 (Homo sapiens) (UniProt P49137); settings: Compound concentration 100.0 nM
[16] = tested on: Phosphatidylinositol 4,5-bisphosphate 3-kinase catalytic subunit alpha isoform (Homo sapiens), P42336 [Q546K]; settings: Compound concentration 100.0 nM
[17] = molecular target: Tyrosine-protein kinase FRK (Homo sapiens) (UniProt P42685); settings: Compound concentration 100.0 nM
[18] = tested on: Tyrosine-protein kinase ABL1 (Homo sapiens), P00519 [F317I]; settings: Compound concentration 100.0 nM
[19] = molecular target: Serine/threonine-protein kinase MAK (Homo sapiens) (UniProt P20794); settings: Compound concentration 100.0 nM
[20] = molecular target: Beta-adrenergic receptor kinase 1 (Homo sapiens) (UniProt P25098); settings: Compound concentration 100.0 nM
[21] = molecular target: Casein kinase I isoform gamma-3 (Homo sapiens) (UniProt Q9Y6M4); settings: Compound concentration 100.0 nM
[22] = molecular target: Non-receptor tyrosine-protein kinase TYK2 (Homo sapiens) (UniProt P29597); settings: Compound concentration 100.0 nM
Chain of Non-receptor tyrosine-protein kinase TYK2 (Homo sapiens) (P29597 whole entry): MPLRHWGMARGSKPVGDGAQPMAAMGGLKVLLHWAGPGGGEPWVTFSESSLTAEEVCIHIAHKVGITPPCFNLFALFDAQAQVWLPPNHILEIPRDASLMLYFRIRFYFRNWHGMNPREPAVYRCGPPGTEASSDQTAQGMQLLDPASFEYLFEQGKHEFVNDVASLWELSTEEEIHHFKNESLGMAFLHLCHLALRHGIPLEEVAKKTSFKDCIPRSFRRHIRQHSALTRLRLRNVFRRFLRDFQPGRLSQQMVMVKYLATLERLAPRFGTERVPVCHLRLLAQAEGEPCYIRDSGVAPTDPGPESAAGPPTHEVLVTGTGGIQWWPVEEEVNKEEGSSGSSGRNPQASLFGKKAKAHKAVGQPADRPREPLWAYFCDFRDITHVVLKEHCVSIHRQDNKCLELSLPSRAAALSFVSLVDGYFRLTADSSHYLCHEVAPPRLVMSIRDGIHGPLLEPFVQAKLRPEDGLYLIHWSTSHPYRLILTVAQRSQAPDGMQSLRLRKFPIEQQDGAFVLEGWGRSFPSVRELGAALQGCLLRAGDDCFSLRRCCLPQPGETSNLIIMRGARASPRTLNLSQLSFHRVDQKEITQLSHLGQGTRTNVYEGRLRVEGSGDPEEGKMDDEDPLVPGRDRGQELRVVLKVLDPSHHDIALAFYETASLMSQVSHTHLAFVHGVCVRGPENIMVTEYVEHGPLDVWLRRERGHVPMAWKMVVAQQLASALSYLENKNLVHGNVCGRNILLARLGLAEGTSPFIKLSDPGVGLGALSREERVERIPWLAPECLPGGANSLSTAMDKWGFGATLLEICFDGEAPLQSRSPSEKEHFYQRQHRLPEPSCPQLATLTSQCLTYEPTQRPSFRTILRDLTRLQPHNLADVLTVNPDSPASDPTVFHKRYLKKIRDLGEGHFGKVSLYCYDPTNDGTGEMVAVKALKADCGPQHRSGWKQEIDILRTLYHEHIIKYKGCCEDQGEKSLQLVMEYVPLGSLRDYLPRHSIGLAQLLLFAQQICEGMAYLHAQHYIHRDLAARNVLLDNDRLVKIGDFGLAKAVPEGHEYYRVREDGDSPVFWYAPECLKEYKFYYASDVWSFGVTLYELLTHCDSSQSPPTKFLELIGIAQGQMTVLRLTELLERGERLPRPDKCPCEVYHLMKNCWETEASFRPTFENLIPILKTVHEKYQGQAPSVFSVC

[23] = molecular target: Ribosomal protein S6 kinase alpha-5 (Homo sapiens) (UniProt O75582); settings: Compound concentration 100.0 nM
[24] = molecular target: Casein kinase I isoform gamma-1 (Homo sapiens) (UniProt Q9HCP0); settings: Compound concentration 100.0 nM
Chain of Casein kinase I isoform gamma-1 (Homo sapiens) (Q9HCP0 whole entry, looked up, canonical isoform): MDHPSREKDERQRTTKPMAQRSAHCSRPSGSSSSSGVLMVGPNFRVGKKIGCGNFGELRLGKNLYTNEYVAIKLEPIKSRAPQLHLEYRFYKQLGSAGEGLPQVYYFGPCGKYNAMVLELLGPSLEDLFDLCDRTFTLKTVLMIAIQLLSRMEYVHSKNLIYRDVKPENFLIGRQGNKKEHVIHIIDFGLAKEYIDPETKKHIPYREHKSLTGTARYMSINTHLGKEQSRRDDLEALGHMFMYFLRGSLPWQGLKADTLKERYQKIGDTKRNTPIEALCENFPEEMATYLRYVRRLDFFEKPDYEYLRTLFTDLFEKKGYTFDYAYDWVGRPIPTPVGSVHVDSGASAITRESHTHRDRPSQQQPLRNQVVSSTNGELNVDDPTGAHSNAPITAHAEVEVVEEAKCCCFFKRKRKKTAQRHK

[25] = tested on: Phosphatidylinositol 4,5-bisphosphate 3-kinase catalytic subunit alpha isoform (Homo sapiens), P42336 [H1047L]; settings: Compound concentration 100.0 nM
[26] = molecular target: Cyclin-dependent kinase-like 1 (Homo sapiens) (UniProt Q00532); settings: Compound concentration 100.0 nM
[27] = molecular target: Cyclin-dependent kinase 8 (Homo sapiens) (UniProt P49336); settings: Compound concentration 100.0 nM
[28] = molecular target: Dual specificity mitogen-activated protein kinase kinase 5 (Homo sapiens) (UniProt Q13163); settings: Compound concentration 100.0 nM
[29] = tested on: Epidermal growth factor receptor (Homo sapiens), P00533 [UNDEFINED MUTATION]; settings: Compound concentration 100.0 nM
[30] = molecular target: Ribosomal protein S6 kinase alpha-6 (Homo sapiens) (UniProt Q9UK32); settings: Compound concentration 100.0 nM; remark: listed apart in the source
[31] = molecular target: Vascular endothelial growth factor receptor 3 (Homo sapiens) (UniProt P35916); settings: Compound concentration 100.0 nM
[32] = molecular target: Alpha-1A adrenergic receptor (Homo sapiens) (UniProt P35348); settings: Compound concentration 10.0 uM
[33] = molecular target: Tyrosine-protein kinase JAK1 (Homo sapiens) (UniProt P23458); settings: Compound concentration 100.0 nM
[34] = molecular target: Cyclin-dependent kinase 18 (Homo sapiens) (UniProt Q07002); settings: Compound concentration 100.0 nM
[35] = molecular target: Testis-specific serine/threonine-protein kinase 3 (Homo sapiens) (UniProt Q96PN8); settings: Compound concentration 100.0 nM
[36] = molecular target: Serine/threonine-protein kinase RIO2 (Homo sapiens) (UniProt Q9BVS4); settings: Compound concentration 100.0 nM
[37] = molecular target: SRSF protein kinase 1 (Homo sapiens) (UniProt Q96SB4); settings: Compound concentration 100.0 nM
[38] = molecular target: Ephrin type-A receptor 1 (Homo sapiens) (UniProt P21709); settings: Compound concentration 100.0 nM
Chain of Ephrin type-A receptor 1 (Homo sapiens) (P21709 whole entry): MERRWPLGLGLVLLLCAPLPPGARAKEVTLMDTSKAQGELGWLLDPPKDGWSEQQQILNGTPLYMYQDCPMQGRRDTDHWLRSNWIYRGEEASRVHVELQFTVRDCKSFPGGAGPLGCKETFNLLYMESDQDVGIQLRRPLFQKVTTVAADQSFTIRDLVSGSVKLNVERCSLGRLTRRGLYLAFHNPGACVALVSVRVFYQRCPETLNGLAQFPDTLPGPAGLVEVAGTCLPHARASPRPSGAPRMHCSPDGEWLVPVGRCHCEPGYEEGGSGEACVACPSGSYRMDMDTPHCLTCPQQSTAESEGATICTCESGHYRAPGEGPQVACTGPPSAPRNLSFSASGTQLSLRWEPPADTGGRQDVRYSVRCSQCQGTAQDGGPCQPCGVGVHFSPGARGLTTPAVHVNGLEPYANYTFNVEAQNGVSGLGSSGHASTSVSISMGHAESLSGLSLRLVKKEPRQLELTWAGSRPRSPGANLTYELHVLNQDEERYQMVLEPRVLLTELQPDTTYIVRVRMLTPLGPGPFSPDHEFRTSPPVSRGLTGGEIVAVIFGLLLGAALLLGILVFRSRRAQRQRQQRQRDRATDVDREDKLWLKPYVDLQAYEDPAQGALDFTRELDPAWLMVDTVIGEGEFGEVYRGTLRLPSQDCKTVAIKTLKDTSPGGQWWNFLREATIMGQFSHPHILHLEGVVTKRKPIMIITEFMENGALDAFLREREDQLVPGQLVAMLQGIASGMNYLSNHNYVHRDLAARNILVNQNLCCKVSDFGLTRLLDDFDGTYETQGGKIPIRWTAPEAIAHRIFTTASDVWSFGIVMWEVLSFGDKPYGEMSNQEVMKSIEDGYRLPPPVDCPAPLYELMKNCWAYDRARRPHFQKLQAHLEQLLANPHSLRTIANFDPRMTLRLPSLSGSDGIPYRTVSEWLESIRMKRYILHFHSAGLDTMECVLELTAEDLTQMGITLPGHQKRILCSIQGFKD

[39] = molecular target: Myosin light chain kinase 2, skeletal/cardiac muscle (Homo sapiens) (UniProt Q9H1R3); settings: Compound concentration 100.0 nM
[40] = molecular target: Mitogen-activated protein kinase kinase kinase kinase 2 (Homo sapiens) (UniProt Q12851); settings: Compound concentration 100.0 nM
[41] = molecular target: Fibroblast growth factor receptor 1 (Homo sapiens) (UniProt P11362); settings: Compound concentration 100.0 nM
[42] = molecular target: RAF proto-oncogene serine/threonine-protein kinase (Homo sapiens) (UniProt P04049); settings: Compound concentration 100.0 nM
[43] = molecular target: Cyclin-dependent kinase-like 3 (Homo sapiens) (UniProt Q8IVW4); settings: Compound concentration 100.0 nM
[44] = molecular target: Serine/threonine-protein kinase pim-1 (Homo sapiens) (UniProt P11309); settings: Compound concentration 100.0 nM
[45] = tested on: Serine/threonine-protein kinase B-raf (Homo sapiens), P15056 [V600E]; settings: Compound concentration 100.0 nM

Chain of 5-hydroxytryptamine receptor 6 (Homo sapiens) (P50406 whole entry): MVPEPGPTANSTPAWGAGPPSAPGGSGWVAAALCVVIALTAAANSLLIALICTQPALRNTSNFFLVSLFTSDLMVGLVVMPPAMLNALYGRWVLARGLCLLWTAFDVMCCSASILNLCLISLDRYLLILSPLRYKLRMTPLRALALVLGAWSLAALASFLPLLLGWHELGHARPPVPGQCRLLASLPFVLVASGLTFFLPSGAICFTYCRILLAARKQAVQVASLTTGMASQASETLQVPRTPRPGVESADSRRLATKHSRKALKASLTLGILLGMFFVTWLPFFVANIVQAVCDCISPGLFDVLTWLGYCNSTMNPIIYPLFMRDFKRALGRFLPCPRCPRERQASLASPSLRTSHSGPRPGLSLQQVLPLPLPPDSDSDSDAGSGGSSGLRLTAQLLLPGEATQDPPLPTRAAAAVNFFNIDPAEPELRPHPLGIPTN

Nc1c(C(=O)NCc2ccc(C(=O)NCCCC3CCCCC3)cc2)cnn1-c1ccccc1 [SR-318]
inactive: residual activity [1] 100% | inhibition [2] 26.8% | residual activity [3] 100% | residual activity [4] 96% | residual activity [5] 100% | residual activity [6] 100% | residual activity [7] 93% | residual activity [8] 61% | inhibition [9] -5.64% | residual activity [10] 100% | residual activity [11] 100% | residual activity [12] 100% | residual activity [13] 100% | residual activity [14] 81% | residual activity [15] 100% | residual activity [16] 96% | residual activity [17] 100% | residual activity [18] 92% | residual activity [19] 100% | residual activity [20] 100% | residual activity [21] 100% | residual activity [22] 100% | residual activity [23] 94% | residual activity [24] 100% | residual activity [25] 100% | residual activity [26] 100% | residual activity [27] 96% | residual activity [28] 100% | residual activity [29] 84% | residual activity [30] 100% | residual activity [31] 100% | inhibition [32] 36.9% | residual activity [33] 100% | residual activity [34] 100% | residual activity [35] 100% | residual activity [36] 92% | residual activity [37] 90% | residual activity [38] 100% | residual activity [39] 100% | residual activity [40] 94% | residual activity [41] 71% | residual activity [42] 100% | residual activity [43] 97% | residual activity [44] 93% | residual activity [45] 100%

O=C(NCCCC1CCCCC1)c1ccc(CNC(=O)c2cnn(-c3ccccc3)c2C(F)(F)F)cc1 [SR-321]
inactive: residual activity [1] 89% | inhibition [2] -0.05% | residual activity [3] 100% | residual activity [4] 93% | residual activity [5] 100% | residual activity [6] 100% | residual activity [7] 100% | residual activity [8] 92% | inhibition [9] 5.56% | residual activity [10] 100% | residual activity [11] 100% | residual activity [12] 88% | residual activity [13] 100% | residual activity [14] 95% | residual activity [15] 100% | residual activity [16] 67% | residual activity [17] 77% | residual activity [18] 100% | residual activity [19] 100% | residual activity [20] 100% | residual activity [21] 100% | residual activity [22] 100% | residual activity [23] 100% | residual activity [24] 100% | residual activity [25] 86% | residual activity [26] 80% | residual activity [27] 97% | residual activity [28] 73% | residual activity [29] 100% | residual activity [30] 100% | residual activity [31] 100% | inhibition [32] 17.9% | residual activity [33] 89% | residual activity [34] 100% | residual activity [35] 100% | residual activity [36] 100% | residual activity [37] 95% | residual activity [38] 100% | residual activity [39] 100% | residual activity [40] 100% | residual activity [41] 100% | residual activity [42] 99% | residual activity [43] 100% | residual activity [44] 100% | residual activity [45] 100%
